{"source": "patent US10517889B2", "about": "“Modulators of SMAD7 expression” (Ionis Pharmaceuticals, Inc., priority 2017, dated 2019)", "note": "Strand notation (5' to 3'): a small letter for the sugar, then the base; units joined by * are phosphorothioate-linked, units joined directly phosphodiester-linked; [ ] holds rarer units or linkages, { } end groups; capitals alone tell only the bases. k = constrained ethyl (cEt); [5mC] = 5-methylcytosine; d = 2'-deoxy (DNA)", "data": [{"test_system": "human SMAD7 mRNA", "assay": "Antisense inhibition of human SMAD7 mRNA expression in Hep3B cells by 3-10-3 cEt gapmers, 10,000 nM, electroporation (Example 2)", "assay_type": "cell-based", "conditions": "SMAD7 mRNA, Hep3B cells, electroporation with 10,000 nM antisense oligonucleotide, approximately 24 hours, primer probe set RTS5062, relative to untreated control cells", "how_it_was_run": "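Hep3B, 20,000 cells/well; electroporation, 10,000 nM ASO; ~24 h. Readout: SMAD7 mRNA by qRT-PCR (RTS5062), RIBOGREEN-normalised; % inhibition vs untreated.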", "units": {"% Inhibition": "%"}, "values": [{"substance": "829795 (kT*kG*kA*dT*d[5mC]*dT*dT*d[5mC]*d[5mC]*d[5mC]*dG*dT*dA*kA*kG*kA; antisense) [compound 829795]", "% Inhibition": 34}, {"substance": "829796 (kT*kT*kG*dA*dT*d[5mC]*dT*dT*d[5mC]*d[5mC]*d[5mC]*dG*dT*kA*kA*kG; antisense) [compound 829796]", "% Inhibition": 27}, {"substance": "829797 (kG*kG*kT*dT*dG*dA*dT*d[5mC]*dT*dT*d[5mC]*d[5mC]*d[5mC]*kG*kT*kA; antisense) [compound 829797]", "% Inhibition": 54}, {"substance": "829798 (kG*kG*kG*dT*dT*dG*dA*dT*d[5mC]*dT*dT*d[5mC]*d[5mC]*k[5mC]*kG*kT; antisense) [compound 829798]", "% Inhibition": 26}, {"substance": "829799 (kT*k[5mC]*kG*dG*d[5mC]*dT*dA*dA*dG*dG*dT*dG*dA*kT*kG*kG; antisense) [compound 829799]", "% Inhibition": 51}, {"substance": "829800 (kG*kT*k[5mC]*dG*dG*d[5mC]*dT*dA*dA*dG*dG*dT*dG*kA*kT*kG; antisense) [compound 829800]", "% Inhibition": 30}, {"substance": "829801 (kA*kG*kT*d[5mC]*dG*dG*d[5mC]*dT*dA*dA*dG*dG*dT*kG*kA*kT; antisense) [compound 829801]", "% Inhibition": 8}, {"substance": "829802 (kT*kT*k[5mC]*dG*d[5mC]*dA*dG*dA*dG*dT*d[5mC]*dG*dG*k[5mC]*kT*kA; antisense) [compound 829802]", "% Inhibition": 28}, {"substance": "829803 (kA*kG*kT*dT*d[5mC]*dG*d[5mC]*dA*dG*dA*dG*dT*d[5mC]*kG*kG*k[5mC]; antisense) [compound 829803]", "% Inhibition": 35}, {"substance": "829804 (kT*kA*kG*dT*dT*d[5mC]*dG*d[5mC]*dA*dG*dA*dG*dT*k[5mC]*kG*kG; antisense) [compound 829804]", "% Inhibition": 39}, {"substance": "829805 (kT*k[5mC]*kT*dA*dG*dT*dT*d[5mC]*dG*d[5mC]*dA*dG*dA*kG*kT*k[5mC]; antisense) [compound 829805]", "% Inhibition": 37}, {"substance": "829806 (kG*kA*k[5mC]*dT*d[5mC]*dT*dA*dG*dT*dT*d[5mC]*dG*d[5mC]*kA*kG*kA; antisense) [compound 829806]", "% Inhibition": 41}, {"substance": "829807 (kA*kG*kA*d[5mC]*dT*d[5mC]*dT*dA*dG*dT*dT*d[5mC]*dG*k[5mC]*kA*kG; antisense) [compound 829807]", "% Inhibition": 41}, {"substance": "829808 (kG*kG*kA*dG*dA*d[5mC]*dT*d[5mC]*dT*dA*dG*dT*dT*k[5mC]*kG*k[5mC]; antisense) [compound 829808]", "% Inhibition": 53}, {"substance": "829809 (kG*kG*kG*dA*dG*dA*d[5mC]*dT*d[5mC]*dT*dA*dG*dT*kT*k[5mC]*kG; antisense) [compound 829809]", "% Inhibition": 51}, {"substance": "829810 (kA*kT*k[5mC]*dG*dG*dG*dT*dA*dT*d[5mC]*dT*dG*dG*kA*kG*kT; antisense) [compound 829810]", "% Inhibition": 29}, {"substance": "829811 (kT*k[5mC]*k[5mC]*dA*dT*d[5mC]*dG*dG*dG*dT*dA*dT*d[5mC]*kT*kG*kG; antisense) [compound 829811]", "% Inhibition": 0}, {"substance": "829814 (kG*kT*k[5mC]*dT*dG*d[5mC]*dA*dG*dT*dT*dG*dG*dT*kT*kT*kG; antisense) [compound 829814]", "% Inhibition": 94}, {"substance": "829822 (kT*kG*kT*dT*dT*d[5mC]*dA*dG*d[5mC]*dG*dG*dA*dG*kG*kA*kA; antisense) [compound 829822]", "% Inhibition": 43}, {"substance": "829829 (kT*k[5mC]*kT*dG*dA*dA*dA*dG*d[5mC]*d[5mC]*d[5mC]*d[5mC]*d[5mC]*k[5mC]*kA*kG; antisense) [compound 829829]", "% Inhibition": 11}, {"substance": "829830 (kA*kA*kT*d[5mC]*dT*dG*dA*dA*dA*dG*d[5mC]*d[5mC]*d[5mC]*k[5mC]*k[5mC]*k[5mC]; antisense) [compound 829830]", "% Inhibition": 36}, {"substance": "829831 (kG*kA*k[5mC]*d[5mC]*dG*dA*dT*d[5mC]*d[5mC]*d[5mC]*d[5mC]*dA*dG*kG*k[5mC]*kT; antisense) [compound 829831]", "% Inhibition": 9}, {"substance": "829832 (kT*kG*kA*d[5mC]*d[5mC]*dG*dA*dT*d[5mC]*d[5mC]*d[5mC]*d[5mC]*dA*kG*kG*k[5mC]; antisense) [compound 829832]", "% Inhibition": 51}, {"substance": "829833 (kG*kT*kG*dA*d[5mC]*d[5mC]*dG*dA*dT*d[5mC]*d[5mC]*d[5mC]*d[5mC]*kA*kG*kG; antisense) [compound 829833]", "% Inhibition": 0}, {"substance": "829834 (kG*kT*kG*dT*dG*dA*d[5mC]*d[5mC]*dG*dA*dT*d[5mC]*d[5mC]*k[5mC]*k[5mC]*kA; antisense) [compound 829834]", "% Inhibition": 29}, {"substance": "829835 (k[5mC]*kA*kG*dT*dG*dT*dG*dA*d[5mC]*d[5mC]*dG*dA*dT*k[5mC]*k[5mC]*k[5mC]; antisense) [compound 829835]", "% Inhibition": 52}, {"substance": "829836 (k[5mC]*k[5mC]*kA*dG*dT*dG*dT*dG*dA*d[5mC]*d[5mC]*dG*dA*kT*k[5mC]*k[5mC]; antisense) [compound 829836]", "% Inhibition": 48}, {"substance": "829837 (k[5mC]*k[5mC]*kA*dG*dT*dA*dT*dG*d[5mC]*d[5mC]*dA*d[5mC]*d[5mC]*kA*k[5mC]*kG; antisense) [compound 829837]", "% Inhibition": 16}, {"substance": "829838 (k[5mC]*k[5mC]*k[5mC]*dA*dG*dT*dA*dT*dG*d[5mC]*d[5mC]*dA*d[5mC]*k[5mC]*kA*k[5mC]; antisense) [compound 829838]", "% Inhibition": 28}, {"substance": "829839 (kA*k[5mC]*kA*d[5mC]*dA*dG*dT*dA*dG*dA*dG*d[5mC]*d[5mC]*kT*k[5mC]*k[5mC]; antisense) [compound 829839]", "% Inhibition": 8}, {"substance": "829840 (kG*kG*kA*d[5mC]*dA*d[5mC]*dA*dG*dT*dA*dG*dA*dG*k[5mC]*k[5mC]*kT; antisense) [compound 829840]", "% Inhibition": 0}, {"substance": "829841 (kT*kG*kG*dA*d[5mC]*dA*d[5mC]*dA*dG*dT*dA*dG*dA*kG*k[5mC]*k[5mC]; antisense) [compound 829841]", "% Inhibition": 50}, {"substance": "829842 (k[5mC]*k[5mC]*kG*dA*dG*dG*d[5mC]*dA*dA*dA*dA*dG*d[5mC]*k[5mC]*kA*kT; antisense) [compound 829842]", "% Inhibition": 26}, {"substance": "829843 (antisense kG*kA*kA*dT*dT*dG*dA*dG*d[5mC]*dT*dG*dT*d[5mC]*k[5mC]*kG*kA) [compound 829843]", "% Inhibition": 49}, {"substance": "829844 (antisense k[5mC]*kG*kA*dA*dT*dT*dG*dA*dG*d[5mC]*dT*dG*dT*k[5mC]*k[5mC]*kG) [compound 829844]", "% Inhibition": 49}, {"substance": "829845 (antisense kT*k[5mC]*k[5mC]*dG*dA*dA*dT*dT*dG*dA*dG*d[5mC]*dT*kG*kT*k[5mC]) [compound 829845]", "% Inhibition": 40}, {"substance": "829846 (antisense kG*kT*k[5mC]*d[5mC]*dG*dA*dA*dT*dT*dG*dA*dG*d[5mC]*kT*kG*kT) [compound 829846]", "% Inhibition": 29}, {"substance": "829847 (antisense kT*kG*kT*d[5mC]*d[5mC]*dG*dA*dA*dT*dT*dG*dA*dG*k[5mC]*kT*kG) [compound 829847]", "% Inhibition": 64}, {"substance": "829848 (antisense kT*kT*kG*dT*d[5mC]*d[5mC]*dG*dA*dA*dT*dT*dG*dA*kG*k[5mC]*kT) [compound 829848]", "% Inhibition": 47}, {"substance": "829849 (antisense kT*kG*kT*dT*dG*dT*d[5mC]*d[5mC]*dG*dA*dA*dT*dT*kG*kA*kG) [compound 829849]", "% Inhibition": 49}, {"substance": "829850 (antisense kT*kT*kG*dT*dT*dG*dT*d[5mC]*d[5mC]*dG*dA*dA*dT*kT*kG*kA) [compound 829850]", "% Inhibition": 36}, {"substance": "829851 (antisense k[5mC]*kT*kT*dG*dT*dT*dG*dT*d[5mC]*d[5mC]*dG*dA*dA*kT*kT*kG) [compound 829851]", "% Inhibition": 31}, {"substance": "829852 (antisense kT*k[5mC]*kT*dT*dG*dT*dT*dG*dT*d[5mC]*d[5mC]*dG*dA*kA*kT*kT) [compound 829852]", "% Inhibition": 33}, {"substance": "829853 (antisense kA*k[5mC]*kT*d[5mC]*dT*dT*dG*dT*dT*dG*dT*d[5mC]*d[5mC]*kG*kA*kA) [compound 829853]", "% Inhibition": 42}, {"substance": "829854 (antisense kG*k[5mC]*kT*dG*dA*d[5mC]*dT*d[5mC]*dT*dT*dG*dT*dT*kG*kT*k[5mC]) [compound 829854]", "% Inhibition": 25}, {"substance": "829855 (antisense kA*kG*k[5mC]*dT*dG*dA*d[5mC]*dT*d[5mC]*dT*dT*dG*dT*kT*kG*kT) [compound 829855]", "% Inhibition": 0}, {"substance": "829856 (antisense kA*k[5mC]*k[5mC]*dA*dG*d[5mC]*dT*dG*dA*d[5mC]*dT*d[5mC]*dT*kT*kG*kT) [compound 829856]", "% Inhibition": 41}, {"substance": "829857 (antisense kT*kG*k[5mC]*dA*d[5mC]*d[5mC]*dA*dG*d[5mC]*dT*dG*dA*d[5mC]*kT*k[5mC]*kT) [compound 829857]", "% Inhibition": 31}, {"substance": "829858 (antisense kT*kG*k[5mC]*dT*d[5mC]*d[5mC]*dG*d[5mC]*dA*d[5mC]*d[5mC]*dT*dT*k[5mC]*kT*kG) [compound 829858]", "% Inhibition": 59}, {"substance": "829859 (antisense kT*kT*kT*dT*dG*d[5mC]*dT*d[5mC]*d[5mC]*dG*d[5mC]*dA*d[5mC]*k[5mC]*kT*kT) [compound 829859]", "% Inhibition": 39}, {"substance": "829860 (antisense kG*kT*k[5mC]*dA*dG*d[5mC]*dT*dG*dG*dA*dT*dG*d[5mC]*k[5mC]*kG*k[5mC]) [compound 829860]", "% Inhibition": 31}, {"substance": "829861 (antisense k[5mC]*k[5mC]*kA*dT*d[5mC]*d[5mC]*dA*d[5mC]*d[5mC]*dT*d[5mC]*d[5mC]*d[5mC]*kG*k[5mC]*kG) [compound 829861]", "% Inhibition": 35}, {"substance": "829862 (antisense k[5mC]*kT*kG*d[5mC]*dT*dG*d[5mC]*dG*dG*dT*dT*dG*dT*kA*k[5mC]*kA) [compound 829862]", "% Inhibition": 22}, {"substance": "829863 (antisense kA*k[5mC]*kT*dG*d[5mC]*dT*dG*d[5mC]*dG*dG*dT*dT*dG*kT*kA*k[5mC]) [compound 829863]", "% Inhibition": 31}]}]}
